The record followed here is publication PMC4674309 (Molecular cancer therapeutics, 2015).

The experiment addresses IGF-IR (Homo sapiens, UniProt P08069). The experiment in a line: Western blot of IGF-IR autophosphorylation. In kind it is cell-based. A general note: In western blotting, separated proteins are transferred to a membrane and probed.

As usually defined, the IC50 is the midpoint of a concentration-inhibition curve. Read a low IC50 as greater potency.

Bounds are passed on as bounds.

Sequence of IGF-IR (P08069 31-736): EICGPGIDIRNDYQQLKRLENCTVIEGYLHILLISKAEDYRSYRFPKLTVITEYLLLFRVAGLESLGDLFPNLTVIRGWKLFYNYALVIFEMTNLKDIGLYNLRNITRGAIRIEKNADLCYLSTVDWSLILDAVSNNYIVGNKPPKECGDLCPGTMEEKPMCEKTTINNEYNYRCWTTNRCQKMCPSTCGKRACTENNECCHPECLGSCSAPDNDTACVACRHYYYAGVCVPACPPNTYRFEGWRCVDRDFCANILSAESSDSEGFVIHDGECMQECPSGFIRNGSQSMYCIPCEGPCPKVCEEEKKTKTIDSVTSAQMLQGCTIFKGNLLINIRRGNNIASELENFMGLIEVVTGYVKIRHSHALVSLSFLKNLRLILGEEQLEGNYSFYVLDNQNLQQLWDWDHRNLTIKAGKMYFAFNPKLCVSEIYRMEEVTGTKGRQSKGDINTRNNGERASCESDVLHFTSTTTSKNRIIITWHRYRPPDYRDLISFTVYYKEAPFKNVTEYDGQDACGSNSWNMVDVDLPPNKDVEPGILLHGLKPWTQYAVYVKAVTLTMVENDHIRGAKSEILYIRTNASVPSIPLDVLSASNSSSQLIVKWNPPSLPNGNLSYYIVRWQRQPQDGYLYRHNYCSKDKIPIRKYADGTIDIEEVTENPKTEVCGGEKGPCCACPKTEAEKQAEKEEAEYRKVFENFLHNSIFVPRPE
Sequence of IGF-IR (P08069 741-1367): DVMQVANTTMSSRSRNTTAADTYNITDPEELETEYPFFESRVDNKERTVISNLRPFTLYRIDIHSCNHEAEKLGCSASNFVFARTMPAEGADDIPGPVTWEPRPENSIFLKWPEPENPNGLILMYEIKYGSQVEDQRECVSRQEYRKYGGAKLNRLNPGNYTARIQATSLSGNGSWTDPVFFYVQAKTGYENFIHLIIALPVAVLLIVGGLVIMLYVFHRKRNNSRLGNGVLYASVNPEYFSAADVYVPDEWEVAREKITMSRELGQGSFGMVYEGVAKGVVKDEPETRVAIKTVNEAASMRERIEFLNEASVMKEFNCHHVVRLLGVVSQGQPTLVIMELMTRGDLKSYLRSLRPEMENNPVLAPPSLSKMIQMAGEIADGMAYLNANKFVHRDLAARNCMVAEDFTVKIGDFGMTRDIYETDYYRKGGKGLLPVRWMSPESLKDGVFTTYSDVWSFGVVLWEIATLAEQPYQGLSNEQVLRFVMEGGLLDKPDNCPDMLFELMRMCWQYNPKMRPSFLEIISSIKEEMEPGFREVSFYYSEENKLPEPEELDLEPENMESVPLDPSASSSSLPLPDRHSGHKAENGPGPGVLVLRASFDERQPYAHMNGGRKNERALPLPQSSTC

`Cc1ccsc1C(=O)Nc1cc(CN2CCN(C(=O)CO)CC2)ccc1/C=C/c1n[nH]c2ccccc12` [KW-2450] displayed an IC50 of less than 2 nM.
